Test results published in publication PMC9283751 (Clinical and Translational Science, 2022).
Like-named read-outs stand apart in the source and are kept apart here. Each block holds one compound with its values, some of them ahead of it.

Assays:
[1] = Calcineurin inhibitor trough levels in transplant recipients; assay type: in vivo, human; conditions: mean [SD]
[2] = reference group of healthy subjects, abbreviated dosing schedule; cited from earlier work
[3] = assay type: in vivo, human
[4] = assay type: in vivo, human; remark: listed apart in the source
[5] = with diltiazem; cited from earlier work
[6] = cited from earlier work
[7] = cited from earlier work; remark: listed apart in the source
[8] = transplant recipients on tacrolimus, reference healthy subjects on apixaban + tacrolimus
[9] = transplant recipients on cyclosporine compared to healthy subjects on apixaban alone
[10] = transplant recipients on cyclosporine, reference healthy subjects on apixaban + cyclosporine

mean trough level ([1]; after apixaban administration): 8.0 [2.7] ng/ml
mean trough level ([1]; before apixaban administration (steady-state)): 7.4 (1.5) ng/ml
Compound: C=CC[C@@H]1/C=C(\C)C[C@H](C)C[C@H](OC)[C@H]2O[C@@](O)(C(=O)C(=O)N3CCCC[C@H]3C(=O)O[C@H](/C(C)=C/[C@@H]3CC[C@@H](O)[C@H](OC)C3)[C@H](C)[C@@H](O)CC1=O)[C@H](C)C[C@@H]2OC [tacrolimus]
trough level [2]: 3.8 (2.3) ng/ml

increase in plasma concentrations and total body exposures ([3]; SOTRs on calcineurin inhibitors compared to healthy subjects on apixaban alone): 2 to 3 fold
AUC(0-inf) ([3]; human, plasma, oral, 10 mg): 5210 ng·h/mL
Cmax ([3]; human, plasma, oral, 10 mg): 327 ng/mL
Tmax ([3]; human, plasma, oral, 10 mg): 1.4 h
AUC(0-inf) ([3]; human, plasma, po, 10 mg): 4310 ng·h/mL
AUC(0-t) ([3]; human, plasma, po, 10 mg): 4240 ng·h/mL
Cmax ([3]; human, plasma, po, 10 mg): 353 ng/mL
peak level ([3]; one participant (kidney 1) on tacrolimus): > 500 ng/mL
mean AUCs higher than the healthy participants ([3]; tacrolimus group, patients with optimal renal function): 1.8 fold
Tmax ([3]; tacrolimus transplant cohort, comparison group to patients that weighed <60 kg): 2.6 h
mean Cmax ([3]; tacrolimus transplant cohort, patients that weighed <60 kg): 483 ng/mL
apixaban CL/F ([3]; tacrolimus transplant cohort, patients with creatinine levels of greater than 133 μmol/L): 1.9 L/h
GMR for apixaban AUC0-inf ([3]; transplant recipients on tacrolimus compared to healthy subjects on apixaban alone): 224%
GMR for apixaban AUC0-inf [3, 8]: 285%
GMR for apixaban AUC0-tlast [3, 8]: 309%
AUC(0-inf) ([4]; human, plasma, po, 10 mg): 5390 ng·h/mL
AUC(0-t) ([4]; human, plasma, po, 10 mg): 4990 ng·h/mL
GMR for apixaban AUC0-inf [4, 9]: 280%
GMR for apixaban Cmax [4, 9]: 256%
GMR for apixaban AUC0-inf [4, 10]: 229%
GMR for apixaban Cmax [4, 10]: 179%
Compound: COc1ccc(-n2nc(C(N)=O)c3c2C(=O)N(c2ccc(N4CCCCC4=O)cc2)CC3)cc1 [apixaban]
increase in apixaban AUC [5]: 1.4 fold
increase in apixaban Cmax [5]: 1.3 fold
apixaban dose removed by the kidneys [6]: 27%
solubility classification [7]: high solubility
